DBAASP
Converted amounts (≈) assume the structure as drawn. One block for each compound: values may come before it.

Experiments:
Test in all cases: ≥ marks a high value that may be exact or a test limit, other limits are often not marked, values filed in µg/mL are converted to µM
[1] = test system: Pseudomonas aeruginosa PAK
[2] = test system: Staphylococcus aureus
[3] = test system: Streptococcus gordonii Challis DL1
[4] = test system: Streptococcus mitis ATCC 903
[5] = test system: Streptococcus mutans UA159
[6] = test system: Streptococcus sanguinis NY101
[7] = test system: Agrobacterium tumefaciens DSM 3129
[8] = test system: Bacillus megaterium QMB 1551
[9] = test system: Bacillus subtilis DSM 347
[10] = test system: Brenneria salicis NCPPB 2530
[11] = test system: Clavibacter michiganensis subsp. insidiosus NCPPB 1109
[12] = test system: Escherichia coli BL21AI
[13] = test system: Escherichia coli D31
[14] = test system: Escherichia coli DC2
[15] = test system: Escherichia coli DSM 10233
[16] = test system: Escherichia coli DSM 1103
[17] = test system: Escherichia coli K-12
[18] = test system: Escherichia coli NCTC 9001
[19] = test system: Klebsiella pneumoniae DSM 681
[20] = test system: Klebsiella pneumoniae K6 ATCC 700603
[21] = test system: Micrococcus luteus ATCC 10240
[22] = test system: Pseudomonas syringae pv. tomato NCPPB 1106
[23] = test system: Salmonella enterica subsp. enterica serovar Newport
[24] = test system: Salmonella enterica subsp. enterica serovar Typhimurium ATCC 700408
[25] = test system: Salmonella typhimurium ATCC 23565
[26] = test system: Shigella flexneri CP87
[27] = test system: Sinorhizobium meliloti ZB314
[28] = test system: Staphylococcus aureus USA 300
[29] = test system: Acholeplasma laidlawii A-EF22
[30] = test system: Spiroplasma citri R8A2
[31] = test system: Alternaria brassicicola MUCL 20297
[32] = test system: Aspergillus fumigatus
[33] = test system: Bacillus megaterium MA
[34] = test system: Candida albicans
[35] = test system: Fusarium culmorum MUCL 30162
[36] = test system: Fusarium haematococcum 160.2.2
[37] = test system: Fusarium oxysporum MUCL 909
[38] = test system: Micrococcus luteus A270
[39] = test system: Neurospora crassa CBS 327-54
[40] = test system: Saccharomyces cerevisiae TGY 481 pJM600

MIC [1]: 23.3 µM (≈ 62.5 µg/mL)
MIC [2]: 46.7 µM (≈ 125 µg/mL)
MIC [3]: 11.9 µM (≈ 32 µg/mL)
MIC [4]: 5.97 µM (≈ 16 µg/mL)
MIC [5]: 2.99 µM (≈ 8 µg/mL)
MIC [6]: 11.9 µM (≈ 32 µg/mL)
Structure (SMILES): CC[C@H](C)[C@H](NC(=O)[C@H](Cc1ccccc1)NC(=O)[C@H](Cc1cnc[nH]1)NC(=O)[C@H](CCCCN)NC(=O)[C@@H](NC(=O)[C@@H](N)Cc1ccccc1)[C@@H](C)CC)C(=O)N[C@@H](Cc1cnc[nH]1)C(=O)N[C@@H](CCCN=C(N)N)C(=O)N[C@@H](Cc1ccccc1)C(=O)N[C@@H](CO)C(=O)N[C@@H](C)C(=O)N[C@H](C(=O)N[C@@H](CCCN=C(N)N)C(=O)N[C@@H](Cc1c[nH]c2ccccc12)C(=O)N[C@@H](CCCN=C(N)N)C(=O)N[C@@H](Cc1c[nH]c2ccccc12)C(=O)N[C@@H](CCCN=C(N)N)C(=O)N[C@@H](Cc1c[nH]c2ccccc12)C(=O)N[C@@H](Cc1ccccc1)C(N)=O)[C@@H](C)O [FIKHFIHRFSATRWRWRWF]

MIC [7]: 0.0949 µM (≈ 0.2 µg/mL)
MIC [8]: ≥ 71.1 µM
MIC [9]: ≥ 59.3 µM
MIC [10]: 9.5 nM (≈ 0.02 µg/mL)
MIC [11]: 23.7 µM (≈ 50 µg/mL)
MIC [12]: 0.465 µM (≈ 0.98 µg/mL)
MIC [13]: 30.4 µM (≈ 64 µg/mL)
MIC [14]: 1.85 µM (≈ 3.91 µg/mL)
MIC [15]: 0.925 µM (≈ 1.95 µg/mL)
MIC [16]: 0.925 µM (≈ 1.95 µg/mL)
MIC [17]: ≥ 100 µM
MIC [18]: 0.0474 µM (≈ 0.0999 µg/mL)
MIC [19]: 7.41 µM (≈ 15.6 µg/mL)
MIC [20]: 30.4 µM (≈ 64 µg/mL)
MIC [21]: 14.8 µM (≈ 31.3 µg/mL)
MIC [22]: 0.0949 µM (≈ 0.2 µg/mL)
MIC [23]: 0.0949 µM (≈ 0.2 µg/mL)
MIC [24]: 0.949 µM (≈ 2 µg/mL)
MIC [25]: 0.0474 µM (≈ 0.0999 µg/mL)
MIC [26]: 0.0474 µM (≈ 0.0999 µg/mL)
MIC [27]: 0.0474 µM (≈ 0.0999 µg/mL)
MIC [28]: ≥ 100 µM
Structure (SMILES): CC[C@H](C)[C@H](NC(=O)[C@H](CCCNC(=N)N)NC(=O)[C@@H]1CCCN1C(=O)[C@H](Cc1cnc[nH]1)NC(=O)[C@@H]1CCCN1C(=O)[C@@H]1CCCN1C(=O)[C@H](CCCNC(=N)N)NC(=O)[C@@H]1CCCN1C(=O)[C@H](CCC(N)=O)NC(=O)[C@@H]1CCCN1C(=O)[C@@H](NC(=O)[C@H](Cc1ccc(O)cc1)NC(=O)[C@@H](NC(=O)[C@@H]1CCCN1C(=O)[C@H](CCCNC(=N)N)NC(=O)[C@H](CC(N)=O)NC(=O)[C@H](CC(N)=O)NC(=O)CN)C(C)C)[C@@H](C)CC)C(=O)O [GNNRPVYIPQPRPPHPRI]

MIC [29]: ≥ 100 µM
MIC [30]: ≥ 100 µM
Structure (SMILES): CC(C)C[C@H](NC(=O)[C@H](CC(C)C)NC(=O)[C@H](CCCCN)NC(=O)[C@H](CC(C)C)NC(=O)[C@H](CC(C)C)NC(=O)[C@H](CC(C)C)NC(=O)[C@H](CCCCN)NC(=O)[C@@H](N)CC(C)C)C(=O)N[C@@H](CCCCN)C(=O)O [LKLLLKLLK]

MIC [31]: 3 µM (≈ 25.8 µg/mL)
MIC [32]: 5 µM (≈ 42.9 µg/mL)
MIC [33]: 0.2 µM (≈ 1.72 µg/mL)
MIC [34]: 10 µM (≈ 85.8 µg/mL)
MIC [35]: 1 µM (≈ 8.58 µg/mL)
MIC [36]: 1 µM (≈ 8.58 µg/mL)
MIC [37]: 10 µM (≈ 85.8 µg/mL)
MIC [38]: 2 µM (≈ 17.2 µg/mL)
MIC [39]: 3 µM (≈ 25.8 µg/mL)
MIC [40]: 10 µM (≈ 85.8 µg/mL)
Structure (SMILES): CC[C@H](C)[C@H](NC(=O)[C@H](CCCN=C(N)N)NC(=O)[C@H](CCC(=O)O)NC(=O)[C@H](CC(=O)O)NC(=O)CNC(=O)[C@H](CCCN=C(N)N)NC(=O)[C@H](CC(C)C)NC(=O)[C@@H](NC(=O)[C@H](CCC(=O)O)NC(=O)[C@H](Cc1ccccc1)NC(=O)[C@@H]1CSSC[C@H](NC(=O)[C@H](CCCCN)NC(=O)[C@H](CCSC)NC(=O)[C@@H](NC(=O)[C@H](CCC(=O)O)NC(=O)[C@@H](NC(=O)[C@H](CC(=O)O)NC(=O)CNC(=O)[C@H](CCCCN)NC(=O)[C@H](CC(N)=O)NC(=O)[C@H](CCSC)NC(=O)[C@@H]2CCCN2C(=O)[C@H](CO)NC(=O)[C@H](CC(N)=O)NC(=O)[C@@H](NC(=O)[C@@H]2CCCN2C(=O)[C@@H](N)CC(C)C)C(C)C)[C@@H](C)O)C(C)C)C(=O)N[C@@H]([C@@H](C)CC)C(=O)N[C@@H](C(C)C)C(=O)N[C@@H](CCC(=O)O)C(=O)N[C@@H](C(C)C)C(=O)N[C@@H]([C@@H](C)CC)C(=O)N[C@@H](CO)C(=O)N[C@@H](CC(=O)O)C(=O)N[C@@H]([C@@H](C)O)C(=O)N[C@@H](CC(C)C)C(=O)N[C@@H](CO)C(=O)N[C@@H](CCCCN)C(=O)N2CCC[C@H]2C(=O)N[C@@H](CO)C(=O)N2CCC[C@H]2C(=O)N[C@@H](CCSC)C(=O)N2CCC[C@H]2C(=O)N[C@@H](C(C)C)C(=O)N[C@@H](CO)C(=O)N[C@@H](CCCCN)C(=O)N[C@@H](CCC(=O)O)C(=O)N1)[C@@H](C)O)C(=O)N[C@@H](CC(C)C)C(=O)N[C@@H](CO)C(=O)N[C@H](C(=O)N[C@@H](CC(C)C)C(=O)N[C@@H](CCCN=C(N)N)C(=O)N[C@@H](Cc1cnc[nH]1)C(=O)N[C@@H](CCC(N)=O)C(=O)N[C@@H](CC(N)=O)C(=O)N[C@@H](CC(C)C)C(=O)N[C@@H](CC(C)C)C(=O)N[C@@H](CCCCN)C(=O)N[C@@H](CCC(=O)O)C(=O)N[C@@H](CC(C)C)C(=O)N[C@@H](CCC(N)=O)C(=O)N[C@@H](CC(=O)O)C(=O)N[C@@H](CC(C)C)C(=O)N[C@@H](C)C(=O)N[C@@H](CC(C)C)C(=O)N[C@@H](CCC(N)=O)C(=O)NCC(=O)N[C@@H](C)C(=O)N[C@@H](CCCCN)C(=O)N[C@@H](CCC(=O)O)C(=O)N[C@@H](CCCN=C(N)N)C(=O)N[C@H](C(=O)N[C@@H](Cc1cnc[nH]1)C(=O)N[C@@H](CCC(N)=O)C(=O)N[C@@H](CCC(N)=O)C(=O)O)[C@@H](C)O)[C@@H](C)CC [LPVNSPMNKGDTEVMKCIVEVISDTLSKPSPMPVSKECFETLRGDERILSILRHQNLLKELQDLALQGAKERTHQQ]
